Laboratory results from ChEMBL document CHEMBL5053551, “Structure-Based Design of Dual Partial Peroxisome Proliferator-Activated Receptor γ Agonists/Soluble Epoxide Hydrolase Inhibitors” (J Med Chem, 2021).
In brackets after ≈: the same amount, converted by molar mass. Activity calls are given as the source filed them. The calls are words filed in the database; no cut-off is given here.

Columns and labels:
[1] = target: T1, Peroxisome proliferator-activated receptor gamma (Homo sapiens, UniProt P37231); test: Partial agonist activity at GAL4-tagged human PPARgamma LBD expressed in HEK293T cells incubated for 12 to 14 hrs by dual-Glo luciferase assay; assay type: cell-based
T1 sequence (P37231 whole entry): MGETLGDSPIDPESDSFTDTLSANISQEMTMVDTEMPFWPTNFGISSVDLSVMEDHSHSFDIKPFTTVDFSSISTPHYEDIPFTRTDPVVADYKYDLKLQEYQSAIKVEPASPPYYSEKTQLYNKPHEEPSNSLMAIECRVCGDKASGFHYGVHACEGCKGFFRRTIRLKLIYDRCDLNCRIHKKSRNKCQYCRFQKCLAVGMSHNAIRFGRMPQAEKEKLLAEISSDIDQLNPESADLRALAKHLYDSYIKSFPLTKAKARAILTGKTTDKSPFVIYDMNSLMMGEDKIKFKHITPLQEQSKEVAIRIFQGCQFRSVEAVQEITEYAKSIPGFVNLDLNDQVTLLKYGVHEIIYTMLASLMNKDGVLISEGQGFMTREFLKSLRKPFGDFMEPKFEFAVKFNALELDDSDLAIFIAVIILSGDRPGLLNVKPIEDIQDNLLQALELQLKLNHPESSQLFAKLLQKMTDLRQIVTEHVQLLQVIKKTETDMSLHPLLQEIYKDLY

[2] = target: T2, Bifunctional epoxide hydrolase 2 (Mus musculus, UniProt P34914); test: Inhibition of N-terminal His-tagged mouse sEH (2 to 554 residues) expressed in Escherichia coli Rosetta2 (DE3) assessed as reduction in 6-methoxy-2-naphthaldehyde formation using PHOME as substrate preincubated for 30 to 45 mins followed by substrate addition and measured after 30 to 45 mins by fluorescence assay
T2 sequence (P34914 whole entry): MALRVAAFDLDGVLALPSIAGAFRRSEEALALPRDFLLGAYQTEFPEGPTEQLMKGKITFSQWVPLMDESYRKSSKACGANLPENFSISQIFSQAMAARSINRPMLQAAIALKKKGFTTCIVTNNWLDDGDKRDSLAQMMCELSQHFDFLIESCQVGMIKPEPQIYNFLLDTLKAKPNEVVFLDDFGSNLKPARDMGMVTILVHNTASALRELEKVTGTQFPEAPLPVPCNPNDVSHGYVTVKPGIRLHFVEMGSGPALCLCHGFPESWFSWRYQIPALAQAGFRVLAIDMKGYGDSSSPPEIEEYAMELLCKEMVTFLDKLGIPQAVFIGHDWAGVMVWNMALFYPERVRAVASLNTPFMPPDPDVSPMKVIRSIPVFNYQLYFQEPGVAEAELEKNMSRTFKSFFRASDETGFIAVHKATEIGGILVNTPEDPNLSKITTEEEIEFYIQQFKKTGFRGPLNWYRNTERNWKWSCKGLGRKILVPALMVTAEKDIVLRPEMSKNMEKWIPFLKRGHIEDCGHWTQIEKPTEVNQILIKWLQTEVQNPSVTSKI

[3] = Solubility of compound in DPBS buffer; assay type: physicochemical
[4] = Stability of compound in Sprague-Dawley rat liver microsomes assessed as half life at 10 uM preincubated for 5 mins in presence of NADPH regenerating system followed by microsomal addition and measured upto 60 mins by HPLC analysis; assay type: ADME, Microsome; conditions: time 65 min
[5] = Stability of compound in BALB/c mouse liver microsomes assessed as half life at 10 uM preincubated for 5 mins in presence of NADPH regenerating system followed by microsomal addition and measured upto 60 mins by HPLC analysis; assay type: ADME, Microsome; conditions: time 65 min
[6] = Stability of compound in human liver microsomes assessed as half life at 10 uM preincubated for 5 mins in presence of NADPH regenerating system followed by microsomal addition and measured upto 60 mins by HPLC analysis; assay type: ADME, Microsome; conditions: time 65 min
HepG2 = test: Cytotoxicity against human HepG2 cells assessed as reduction in ATP level at above 25 to 50 uM after 72 hrs by CellTiter-glo luminescence assay; assay type: cell-based; conditions: hepg2, 72 h, dose 25-50 µM
[7] = target: T3, Peroxisome proliferator-activated receptor delta (Homo sapiens) (UniProt Q03181); test: Partial agonist activity at GAL4-tagged human PPARdelta LBD expressed in HEK293T cells at 3 uM incubated for 12 to 14 hrs by dual-Glo luciferase assay; assay type: cell-based; conditions: time 12-14 hrs
T3 sequence (whole entry): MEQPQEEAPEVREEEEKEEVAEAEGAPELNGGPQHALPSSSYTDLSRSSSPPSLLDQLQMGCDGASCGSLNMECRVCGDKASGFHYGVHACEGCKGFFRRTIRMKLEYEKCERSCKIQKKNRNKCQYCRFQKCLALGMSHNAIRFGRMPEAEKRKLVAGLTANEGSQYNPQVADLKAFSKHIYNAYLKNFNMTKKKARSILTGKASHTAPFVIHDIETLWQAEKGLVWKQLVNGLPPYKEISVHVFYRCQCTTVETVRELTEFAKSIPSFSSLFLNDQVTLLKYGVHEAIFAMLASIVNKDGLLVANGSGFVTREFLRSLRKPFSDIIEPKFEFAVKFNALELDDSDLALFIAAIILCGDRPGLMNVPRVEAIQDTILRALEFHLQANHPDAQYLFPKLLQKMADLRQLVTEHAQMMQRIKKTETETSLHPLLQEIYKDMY

[8] = target: T4, Peroxisome proliferator-activated receptor alpha (Homo sapiens) (UniProt Q07869); test: Partial agonist activity at GAL4-tagged human PPARalpha LBD expressed in HEK293T cells at 3 uM incubated for 12 to 14 hrs by dual-Glo luciferase assay; assay type: cell-based; conditions: time 12-14 hrs
T4 sequence (whole entry): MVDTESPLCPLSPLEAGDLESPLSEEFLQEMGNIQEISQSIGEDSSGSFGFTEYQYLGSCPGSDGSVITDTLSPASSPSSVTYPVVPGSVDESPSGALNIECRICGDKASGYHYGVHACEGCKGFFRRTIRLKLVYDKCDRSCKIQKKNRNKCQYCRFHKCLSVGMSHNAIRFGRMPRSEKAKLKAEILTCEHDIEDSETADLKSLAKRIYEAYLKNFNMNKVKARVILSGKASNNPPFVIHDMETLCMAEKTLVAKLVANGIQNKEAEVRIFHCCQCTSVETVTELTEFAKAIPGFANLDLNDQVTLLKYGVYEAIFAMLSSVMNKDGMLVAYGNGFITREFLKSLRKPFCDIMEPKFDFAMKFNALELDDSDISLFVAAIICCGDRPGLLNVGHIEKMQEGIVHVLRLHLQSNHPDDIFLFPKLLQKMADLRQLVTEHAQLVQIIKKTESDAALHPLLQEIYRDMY

[9] = target: T1, Peroxisome proliferator-activated receptor gamma; test: Partial agonist activity at sGSF-PPARgamma (unknown origin) assessed as CBP-1 recruitment by HT-FRET assay
[10] = target: T5, Peroxisome proliferator-activated receptor gamma (Homo sapiens) (UniProt P37231); test: Partial agonist activity at recombinant sGSF-PPARgamma (unknown origin) assessed as CBP-1 recruitment by HT-FRET assay relative to control
T5 sequence (whole entry): T1 sequence (P37231 whole entry)

3T3-L1 = test: Induction of cell differentiation in mouse 3T3-L1 cells assessed as increase in differentiation cocktail-induced lipid accumulation at 0.3 to 3 uM incubated for 2 days by Oil-Red O staining based assay; assay type: functional; conditions: dose 0.3-3 µM, time 2.0 day

| Compound | EC50 [1] | IC50 [2] | solubility [3] | half-life at 10 µM [4] | half-life at 10 µM [5] | half-life at 10 µM [6] | Activity (HepG2) | Activity [7] | Activity [8] | EC50 [9] | Emax [10] | Activity (3T3-L1) |
| --- | --- | --- | --- | --- | --- | --- | --- | --- | --- | --- | --- | --- |
| CS(=O)(=O)Nc1ccc(CNC(=O)c2ccc3c(ccn3Cc3cccc(F)c3)c2)c(C(F)(F)F)c1 | 0.19 µM | 0.046 µM | 3 µM (≈ 1.56 µg/mL) | 0.867 h | 1.02 h | 1.68 h | Toxic | inactive | inactive | 0.33 µM | 19% | Active |
| O=C(NCc1ccc(NS(=O)(=O)C2CC2)cc1C(F)(F)F)c1ccc2c(ccn2Cc2cccc(F)c2)c1 | 0.22 µM | 0.202 µM | 3 µM (≈ 1.64 µg/mL) | 0.95 h | 0.983 h | 1.38 h | Toxic | inactive | inactive | 0.18 µM | 28% | Active |
